Measured values taken from US6967196B1, “Sulfonamide compounds and uses thereof” (Bristol-Myers Squibb Company, priority 1999, dated 2005).
pIC50: −log10 of the molar value. Counter-ions that a name gives are not always drawn.

The compounds below were run on amyloid β production in transfected H4 (human neuroglioma) cells stably expressing APP constructs (assay: In vitro cell-based assay of inhibitors of amyloid β production (ELISA)). Conditions: Homo sapiens, 16 h, transfected H4 cells expressing APP, approximately 16 hours incubation, amyloid β in medium by ELISA; read-out: ACTIVITY (IC50, inhibition of amyloid β production).
Procedure, shortened: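 Transfected H4 cells stably expressing wild-type or variant APP were exposed to compounds (initial screen 10-100 μM) for about 16 h. Secreted Aβ in the medium was quantified by sandwich ELISA (C-terminal-specific monoclonal capture, N-terminal-specific polyclonal detection) against an Aβ standard curve; dose-response runs followed for actives.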

| pIC50 | Compound |
| --- | --- |
| 6.30 to 7.00 | C[C@H](C(=O)N[C@H]1CC[C@H](O)CC1)N(c1cc(Cl)ccc1F)S(=O)(=O)c1ccc(Cl)cc1 [Example 1338] |

Same assay, conditions: Homo sapiens, 16 h, transfected H4 cells stably expressing APP constructs; approximately 16 hours incubation; amyloid β in medium by ELISA; read-out: ACTIVITY (IC50, inhibition of amyloid β production)

| pIC50 | Compound |
| --- | --- |
| 7.30 to 7.60 | CC(=O)NCCC[C@@H](C)N(c1cc(Cl)ccc1Cl)S(=O)(=O)c1ccc(Cl)cc1 [Example 1113, 4-chloro-N-(2,5-dichlorophenyl)-N-[4-(acetylamino)-1(R)-methylbutyl]benzenesulfonamide] |
| ≥ 7.60 | C[C@H](CCCS(=O)(=O)NC1CCS(=O)(=O)C1)N(c1cc(Cl)ccc1Cl)S(=O)(=O)c1ccc(Cl)cc1 (stereo partly drawn) [Example 1214, 4-chloro-N-[2,5-dichlorophenyl]-N-[4-[[(tetrahydro-1,1-dioxido-3-thienyl)amino]sulfonyl]-1(R)-methylbutyl]benzenesulfonamide] |
| < 6.30 | CC([C@@H]1CCCN1C(=O)OC(C)(C)C)N(c1cc(Cl)ccc1Cl)S(=O)(=O)c1ccc(Cl)cc1 (stereo in doubt) [Example 1255, 4-chloro-N-(2,5-dichlorophenyl)-N-[1-(S)-[1-[(1,1-dimethylethoxy)carbonyl]pyrrolidin-2-yl]ethyl]benzenesulfonamide] |
| ≥ 7.60 | C[C@H](CCCS(=O)(=O)N1CCOCC1)N(c1cc(Cl)ccc1Cl)S(=O)(=O)c1ccc(Cl)cc1 [Example 1209, 4-chloro-N-[2,5-dichlorophenyl]-N-[4-[(4-morpholinyl)sulfonyl]-1(R)-methylbutyl]benzenesulfonamide] |
| ≥ 7.60 | C[C@H](CCCS(=O)(=O)N(C)C)N(c1cc(F)ccc1F)S(=O)(=O)c1ccc(Cl)cc1 [Example 1206, 4-chloro-N-[2,5-difluorophenyl]-N-[4-[(dimethylamino)sulfonyl]-1(R)-methylbutyl]benzenesulfonamide] |

Same assay, conditions: Homo sapiens, 16 h, transfected H4 cells stably expressing APP; approx. 16 h incubation; amyloid β in medium by ELISA; read-out: ACTIVITY (IC50, inhibition of amyloid β production)

| pIC50 | Compound |
| --- | --- |
| 6.30 to 7.00 | CCOc1ccc(C(=O)N2CCCCC2CCOc2ccccc2CN(c2cc(F)ccc2F)S(=O)(=O)c2ccc(Cl)cc2)cc1 (stereo not drawn) [Example 648, 4-chloro-N-(2,5-difluorophenyl)-N-{2-[2-[1-(4-ethoxybenzoyl)-2-piperidinyl]ethoxy}benzyl)benzenesulfonamide] |
| 6.30 to 7.00 | CC(C)NC(=O)N(C)CCOc1ccccc1C(C)N(c1cc(F)ccc1F)S(=O)(=O)c1ccc(Cl)cc1 (stereo not drawn) [Example 695, 4-chloro-N-(2,5-difluorophenyl)-N-[1-(2-{2-[[(isopropylamino)carbonyl](methyl)amino]ethoxy}phenyl)ethyl]benzenesulfonamide] |

Same assay, conditions: Homo sapiens, 16 h, transfected H4 cells stably expressing APP; approximately 16 hours incubation; amyloid β in medium by ELISA; Table B; read-out: ACTIVITY (IC50, inhibition of amyloid β production)

| pIC50 | Compound |
| --- | --- |
| 7.00 to 7.30 | O=S(=O)(c1ccc(Cl)cc1)N(Cc1ccccc1OCCC[S+]([O-])C1CCCCC1)c1cc(F)ccc1F (stereo not drawn) [Example 407, 4-chloro-N-{2-[3-(cyclohexylsulfinyl)propoxy]benzyl}-N-(2,5-difluorophenyl)benzenesulfonamide] |

Same assay, conditions: Homo sapiens, 16 h, transfected H4 cells stably expressing APP; approximately 16 hours incubation; amyloid β in medium by ELISA; read-out: ACTIVITY (IC50, inhibition of amyloid β production)

| pIC50 | Compound |
| --- | --- |
| < 6.30 | C[C@H](c1ccccc1OCCCN(C)C(=O)C(C)(C)C)N(c1cc(F)ccc1F)S(=O)(=O)c1ccc(Cl)cc1 [Example 1059, N-{3-[2-((1R)-1-{[(4-chlorophenyl)sulfonyl]-2,5-difluoroanilino}ethyl)phenoxy]propyl}-N,2,2-trimethylpropanamide] |
| < 6.30 | O=S(=O)(c1ccc(Cl)cc1)N(Cc1cc(Cl)ccc1O)c1ccccc1 [Example 975, 4-chloro-N-(5-chloro-2-hydroxybenzyl)-N-phenylbenzenesulfonamide] |

Same assay, conditions: transfected H4 cells stably expressing APP constructs; approximately 16 hours incubation; amyloid β in medium by ELISA; read-out: ACTIVITY (IC50, inhibition of amyloid β production)

| Compound | pIC50 |
| --- | --- |
| (R)-4-Chloro-N-(2,5-difluorophenyl)-N-[1-[4-fluoro-2-[1-(1,1-dioxo-2-methyl-4-thiomorpholinyl)butanoyl]phenyl]ethyl]benzenesulfonamide [Example 1277] | ≥ 7.60 |
| C[C@H](CCC[S+](C)[O-])N(c1cc(Cl)ccc1F)S(=O)(=O)c1ccc(Cl)cc1 (stereo partly drawn) [Example 1167, 4-chloro-N-[5-chloro-2-fluorophenyl]-N-[1(R)-methyl-(4-methylsulfinyl)butyl]benzenesulfonamide] | ≥ 7.60 |
| CC(C)[S+]([O-])CCC[C@@H](C)N(c1cc(F)ccc1F)S(=O)(=O)c1ccc(Cl)cc1 (stereo partly drawn) [Example 1179] | ≥ 7.60 |
| CC(C)C[C@H](NC(=O)CCCC[C@@H](C)N(c1cc(Cl)ccc1F)S(=O)(=O)c1ccc(Cl)cc1)C(=O)O [Example 1263, (R)-4-Chloro-N-(5-chloro-2-fluorophenyl)-N-[6-[N-(S)-[1-(carboxy)-3-methylbutyl]amino]-1-methyl-6-oxohexyl]benzenesulfonamide] | 7.30 to 7.60 |
| CC(C)Oc1c(NCC[C@@H](C)N(c2cc(F)ccc2F)S(=O)(=O)c2ccc(Cl)cc2)c(=O)c1=O [Example 1125, 4-chloro-N-(2,5-difluorophenyl)-N-[3-(2-isopropoxy-3,4-dioxo-1-cyclobutenyl)amine-1(R)-methylpropyl]benzenesulfonamide] | 7.00 to 7.30 |

Same assay, conditions: transfected H4 cells stably expressing APP; approx. 16 h incubation; amyloid β in medium by ELISA; read-out: ACTIVITY (IC50, inhibition of amyloid β production)

| pIC50 | Compound |
| --- | --- |
| 6.30 to 7.00 | 3-[2-((1R)-1-{[(4-chlorophenyl)sulfonyl]-2,5-difluoroanilino}ethyl)phenyl]-N-isopropylpropanamide [Example 655] |
| 6.30 to 7.00 | 2,4-dichloro-N-{3-[2-(1-{[(4-chlorophenyl)sulfonyl]-2,5-difluoroanilino}ethyl)phenoxy]propyl}-N-methylbenzenesulfonamide [Example 647] |
| 6.30 to 7.00 | N-{2-[2-(1-{[(4-chlorophenyl)sulfonyl]-2,5-difluoroanilino}ethyl)phenoxy]ethyl}-3-cyclopentyl-N-methylpropanamide [Example 653] |
| 6.30 to 7.00 | N-{3-[2-(1-{[(4-chlorophenyl)sulfonyl]-2,5-difluoroanilino}ethyl)phenoxy]propyl}-4-nitrobenzamide [Example 805] |
| 6.30 to 7.00 | 2-((1R)-1-{[(4-chlorophenyl)sulfonyl]-2,5-difluoroanilino}ethyl)benzyl 2-phenylpropylcarbamate [Example 799] |
| 6.30 to 7.00 | 2-((1R)-1-{[(4-chlorophenyl)sulfonyl]-2,5-difluoroanilino}ethyl)benzyl 2-(diethylamino)ethylcarbamate [Example 662] |
| 6.30 to 7.00 | 2-((1R)-1-{[(4-chlorophenyl)sulfonyl]-2,5-difluoroanilino}ethyl)benzyl isopropylcarbamate [Example 674] |
| 6.30 to 7.00 | N-{2-[2-(1-{[(4-chlorophenyl)sulfonyl]-2,5-difluoroanilino}ethyl)phenoxy]ethyl}-N-methylpentanamide [Example 664] |

| Compound | pIC50 |
| --- | --- |
| O=S(=O)(CCOc1ccccc1CN(c1cc(F)ccc1F)S(=O)(=O)c1ccc(Cl)cc1)C1CCCCC1 [Example 754, 4-chloro-N-{2-[2-(cyclohexylfulfonyl)ethoxy]benzyl}-N-(2,5-difluorophenyl)benzenesulfonamide] | 6.30 to 7.00 |

Same assay, conditions: transfected H4 cells stably expressing APP; approximately 16 hours incubation; amyloid β in medium by ELISA; Table B; read-out: ACTIVITY (IC50, inhibition of amyloid β production)

| pIC50 | Compound |
| --- | --- |
| 6.30 to 7.00 | COC(=O)C[S+]([O-])CCc1cc(F)ccc1[C@@H](C)N(c1cc(F)ccc1F)S(=O)(=O)c1ccc(Cl)cc1 (stereo partly drawn) [Example 476, Methyl ({2-[2-((1R)-1-{[(4-chlorophenyl)sulfonyl]-2,5-difluoroanilino}ethyl)-5-fluorophenyl]ethyl}sulfinyl)acetate] |
| 7.00 to 7.30 | C[C@H](c1ccc(F)cc1CS(=O)(=O)CCC(=O)O)N(c1cc(F)ccc1F)S(=O)(=O)c1ccc(Cl)cc1 [Example 467, 3-{[2-((1R)-1-{[(4-chlorophenyl)sulfonyl]-2,5-difluoroanilino}ethyl)-5-fluorobenzyl]sulfonyl}propanoic Acid] |

Same assay, conditions: transfected H4 cells stably expressing APP; approximately 16 hours incubation; amyloid β in medium by ELISA; hydrochloride; read-out: ACTIVITY (IC50, inhibition of amyloid β production)

| pIC50 | Compound |
| --- | --- |
| < 6.30 | C[C@@H](c1ccccc1OCCCn1ccnc1)N(c1cc(F)ccc1F)S(=O)(=O)c1ccc(Cl)cc1 [Example 1048, 4-chloro-N-(2,5-difluorophenyl)-N-((1S)-1-{2-[3-(1H-imidazol-1-yl)propoxy]phenyl}ethyl)benzenesulfonamide hydrochloride] |

Same assay, conditions: transfected H4 cells stably expressing APP; approximately 16 hours incubation; amyloid β in medium by ELISA; read-out: ACTIVITY (IC50, inhibition of amyloid β production)

| Compound | pIC50 |
| --- | --- |
| C[C@H](c1ccccc1CN1CCCCC1)N(c1cc(F)ccc1F)S(=O)(=O)c1ccc(Cl)cc1 [Example 939, 4-chloro-N-(2,5-difluorophenyl)-N-{(1R)-1-[2-(1-piperidinylmethyl)phenyl]ethyl}benzenesulfonamide hydrochloride] | < 6.30 |
| N-{3-[2-({[(4-chlorophenyl)sulfonyl]-2,5-difluoroanilino}methyl)phenoxy]propyl}-3-methoxy-N-methylbenzamide [Example 814] | 6.30 to 7.00 |
| methyl 3-[2-((1R)-1-{[(4-chlorophenyl)sulfonyl]-2,5-difluoroanilino}ethyl)-5-fluorophenyl]propanoate [Example 1065] | < 6.30 |

The remaining lines, values ahead:

| pIC50 | Compound |
| --- | --- |
| < 6.30 | methyl [{2-[2-(1-{[(4-chlorophenyl)sulfonyl]-2,5-difluoroanilino}ethyl)phenoxy]ethyl}(methyl)amino](oxo)acetate [Example 929] |
| < 6.30 | C[C@H](c1ccc(F)cc1CCCC(=O)O)N(c1cc(F)ccc1F)S(=O)(=O)c1ccc(Cl)cc1 [Example 1072, 4-[2-((1R)-1-{[(4-chlorophenyl)sulfonyl]-2,5-difluoroanilino}ethyl)-5-fluorophenyl]butanoic acid] |
